The text below walks through data of patent publication US10912780B2, “Heterocyclic compounds useful as anti-bacterial agents and method for production thereof” (Bugworks Research, Inc., priority 2017, dated 2021).

SMILES strings stand for the structures. ≈ marks a conversion by molar mass, not a printed value. A value given as a limit tells only on which side of the number the result lay.

Holding throughout (assay): Minimum Inhibitory Concentration (MIC) in LB media
Common to all, as to format: cell-based

For assay [1], the system named is Enterococcus faecalis ATCC 29212. Conditions: for MIC: Enterococcus faecalis, ATCC29212, read-out: Minimum Inhibitory Concentration E. faecalis ATCC 29212. From the text: (§1) The compounds of Formula (I) are of interest due to their potent antibacterial effects. The ability of the invention compounds disclosed herein to achieve an antibacterial effect may be evaluated with regard to their ability to inhibit the growth of bacterial species like Escherichia coli ATCC 25922, Staphylococcus aureus ATCC 29213, Klebsiella pneumoniae ATCC 13883, Acinetobacter baumannii ATCC 19606, Pseudomonas aeruginosa ATCC 27853, Enterococcus faecalis ATCC 29212 and Enterococcus faecalis ATCC 29212 using an assay based on the following Minimum Inhibitory Concentration (MIC) protocol:
(§2) The medium sterility is checked by incubating at 37° C. for a period of 48 h.
(§3) Bacterial cultures that are stored as glycerol stocks at −80° C. are sub cultured on LB agar plates to obtain isolated colonies. A single colony of each strain is cultured in LB broth. The cultures are incubated at 37 C, 200 rpm till they reach an optical density (OD at 600 nm) of 0.8 to 1. […] Test compounds are dissolved in dimethyl sulfoxide (DMSO) to a stock concentration of 4 mg/ml. A twofold dilution series of this DMSO stock is prepared in a 96 well V bottom microtitre plate from rows A to H. A 3 μL volume of these dilutions are transferred to a 96-well flat bottom microtitre assay plate. Controls to monitor the effects of DMSO and media sterility are included. Each well is inoculated with 150 μL of the above diluted culture. The plates are incubated at 37° C. overnight in a humidified incubator. The following morning, the plates are read using a Spectrophotometer at 600 nm wavelength. […] The antibacterial activity (MIC) determined against representative Gram positive (S. aureus, E. faecalis) and Gram negative (E.coli, -P. aeruginosa and A. baumannii) pathogen were reported Table 1.

The subject of assay [2] is Escherichia coli ATCC 25922. The conditions noted are these: for MIC: Escherichia coli, ATCC25922, read-out: Minimum Inhibitory Concentration E. coli ATCC 25922.
Source text: as §1, §2, §3

Assay [3] relates to Klebsiella pneumoniae ATCC 13883. Conditions: for MIC: Klebsiella pneumoniae, ATCC13883, read-out: Minimum Inhibitory Concentration K. pneumoniae ATCC 13883.
Source text: as §1, §2, §3

Assay [4] has as its system Pseudomonas aeruginosa ATCC 27853. The conditions noted are these: for MIC: Pseudomonas aeruginosa, ATCC27853, read-out: Minimum Inhibitory Concentration P. aeruginosa ATCC 27853.
Source text: as §1, §2, §3

Assay [5] has as its system Staphylococcus aureus ATCC 29213. Conditions: for MIC: Staphylococcus aureus, ATCC29213, read-out: Minimum Inhibitory Concentration S. aureus ATCC 29213.
Source text: as §1, §2, §3

Assay [6] concerns Acinetobacter baumannii ATCC 19606. Conditions: for MIC: Acinetobacter baumannii, ATCC19606.
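Wherever Minimum Inhibitory Concentration A. baumannii ATCC 19606 is given: twofold compound dilutions from DMSO stocks in LB broth microplates, overnight incubation at 37 °C, growth read by absorbance at 600 nm, with DMSO and sterility controls.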

For `Cn1c(=O)ccc2ncc(F)c(CCNC[C@H]3CN(c4cnc5c(n4)NC(=O)CO5)C(=O)O3)c21` [Example 29, (S)-6-(5-(((2-(3-fluoro-5-methyl-6-oxo-5,6-dihydro-1,5-naphthyridin-4-yl)ethyl)amino)methyl)-2-oxooxazolidin-3-yl)-2H-pyrazino[2,3-b][1,4]oxazin-3(4H)-one], the MIC was determined as 0.125 µg/mL (≈ 0.266 µM) in assay [1]; 0.125 µg/mL (≈ 0.266 µM) in assay [2]; 0.125 µg/mL (≈ 0.266 µM) in assay [3]; 0.5 µg/mL (≈ 1.07 µM) in assay [4]; 0.03 µg/mL (≈ 0.0639 µM) in assay [5]; 0.5 µg/mL (≈ 1.07 µM) in assay [6].
As for `Cn1c(=O)ccc2ncc(F)c(CCCNCC3CN(c4ccc5c(n4)NC(=O)CO5)C(=O)O3)c21` (racemic) [Example 1, 6-(5-(((3-(3-fluoro-5-methyl-6-oxo-5,6-dihydro-1,5-naphthyridin-4-yl)propyl)amino)methyl)-2-oxooxazolidin-3-yl)-2H-pyrido[3,2-b][1,4]oxazin-3(4H)-one], the MIC in assay [1] is < 4 µg/mL; in assay [2], < 0.5 µg/mL; in assay [3], < 1 µg/mL; in assay [4], < 16 µg/mL; in assay [5], < 4 µg/mL; in assay [6], < 0.5 µg/mL.
For `Cn1c(=O)ccc2ncc(F)c(CCCNCC3CN(c4ccc5c(n4)NC(=O)CO5)C(=O)O3)c21` (stereo not drawn) [Example 1b, Chiral 6-(5-(((3-(3-fluoro-5-methyl-6-oxo-5,6-dihydro-1,5-naphthyridin-4-yl)propyl)amino)methyl)-2-oxooxazolidin-3-yl)-2H-pyrido[3,2-b][1,4]oxazin-3(4H)-one], in assay [1], the “Minimum Inhibitory Concentration E. faecalis ATCC 29212” value is <4 µg/mL. In addition, the “Minimum Inhibitory Concentration E. coli ATCC 25922” value in assay [2] was <0.5 µg/mL. Moreover, the “Minimum Inhibitory Concentration K. pneumoniae ATCC 13883” value in assay [3] is <1 µg/mL. The “Minimum Inhibitory Concentration P. aeruginosa ATCC 27853” value in assay [4] was <16 µg/mL. In addition, the “Minimum Inhibitory Concentration S. aureus ATCC 29213” value in assay [5] is <4 µg/mL. In addition, in assay [6], the “Minimum Inhibitory Concentration A. baumannii ATCC 19606” value is <0.5 µg/mL.
`Cn1c(=O)ccc2ccc(F)c(C[C@@H](O)CNC[C@H]3CN(c4ccc5c(n4)NC(=O)CO5)C(=O)O3)c21` (single isomer, unassigned) [Example 19]: the MIC in assay [1] worked out at 0.5 µg/mL (≈ 1.01 µM); in assay [2], 0.25 µg/mL (≈ 0.503 µM); in assay [3], 0.125 µg/mL (≈ 0.251 µM); in assay [4] it was 2 µg/mL (≈ 4.02 µM); in assay [5], 0.25 µg/mL (≈ 0.503 µM); in assay [6], 1 µg/mL (≈ 2.01 µM).
In the case of `Cc1cc(=O)n(C)c2c(CCNC[C@H]3CN(c4cnc5c(n4)NC(=O)CO5)C(=O)O3)c(F)ccc12` [Example 28, (S)-6-(5-(((2-(7-fluoro-1,4-dimethyl-2-oxo-1,2-dihydroquinolin-8-yl)ethyl)amino)methyl)-2-oxooxazolidin-3-yl)-2H-pyrazino[2,3-b][1,4]oxazin-3(4H)-one], the MIC in assay [1] is 0.06 µg/mL (≈ 0.124 µM); in assay [2], 0.06 µg/mL (≈ 0.124 µM); in assay [3], 0.06 µg/mL (≈ 0.124 µM); in assay [4] it was 0.5 µg/mL (≈ 1.04 µM); in assay [5] it was ≤ 0.015 µg/mL; in assay [6], 0.125 µg/mL (≈ 0.259 µM).
`CCn1c(=O)ccc2ccc(F)c(CCNCC[C@H]3CN(c4cnc5c(n4)NC(=O)CO5)C(=O)O3)c21` [Example 27, (S)-6-(5-(2-((2-(1-ethyl-7-fluoro-2-oxo-1,2-dihydroquinolin-8-yl)ethyl)amino)ethyl)-2-oxooxazolidin-3-yl)-2H-pyrazino[2,3-b][1,4]oxazin-3(4H)-one]: the MIC in assay [1] was 0.06 µg/mL (≈ 0.121 µM); in assay [2] it was 0.03 µg/mL (≈ 0.0604 µM); in assay [3] it was 0.125 µg/mL (≈ 0.252 µM); in assay [4], 0.5 µg/mL (≈ 1.01 µM); in assay [5] it was 0.015 µg/mL (≈ 0.0302 µM); in assay [6], 0.06 µg/mL (≈ 0.121 µM).
As for `CS(=O)(=O)CCn1c(=O)ccc2ccc(F)c(CCNC[C@H]3CN(c4ccc5c(n4)NC(=O)CO5)C(=O)O3)c21` [Example 11, (S)-6-(5-(((2-(7-fluoro-1-(2-(methylsulfonyl)ethyl)-2-oxo-1,2-dihydroquinolin-8-yl)ethyl)amino)methyl)-2-oxooxazolidin-3-yl)-2H-pyrido[3,2-b][1,4]oxazin-3(4H)-one], the MIC in assay [1] turned out to be 0.5 µg/mL (≈ 0.894 µM); in assay [2], 0.25 µg/mL (≈ 0.447 µM); in assay [3], 0.25 µg/mL (≈ 0.447 µM); in assay [4], 2 µg/mL (≈ 3.57 µM); in assay [5] it was 0.03 µg/mL (≈ 0.0536 µM); in assay [6], 0.5 µg/mL (≈ 0.894 µM).
Regarding `COCCn1c(=O)ccc2ccc(F)c(CCNC[C@H]3CN(c4cnc5c(n4)NC(=O)CO5)C(=O)O3)c21` [Example 21, (S)-6-(5-(((2-(7-fluoro-1-(2-methoxyethyl)-2-oxo-1,2-dihydroquinolin-8-yl)ethyl)amino)methyl)-2-oxooxazolidin-3-yl)-2H-pyrazino[2,3-b][1,4]oxazin-3(4H)-one], the MIC in assay [1] was 0.25 µg/mL (≈ 0.488 µM); in assay [2], 0.06 µg/mL (≈ 0.117 µM); in assay [3], 0.125 µg/mL (≈ 0.244 µM); in assay [4], 1 µg/mL (≈ 1.95 µM); in assay [5], 0.015 µg/mL (≈ 0.0293 µM); in assay [6], 0.125 µg/mL (≈ 0.244 µM).
For `Cn1c(=O)cnc2ccc(F)c(CCNC[C@H]3CN(c4ncc5c(n4)NC(=O)CO5)C(=O)O3)c21` [Example 17, (S)-2-(5-(((2-(6-fluoro-4-methyl-3-oxo-3,4-dihydroquinoxalin-5-yl)ethyl)amino)methyl)-2-oxooxazolidin-3-yl)-6H-pyrimido[5,4-b][1,4]oxazin-7(8H)-one], the MIC came out at 0.25 µg/mL (≈ 0.533 µM) in assay [1]; 0.125 µg/mL (≈ 0.266 µM) in assay [2]; 0.25 µg/mL (≈ 0.533 µM) in assay [3]; 2 µg/mL (≈ 4.26 µM) in assay [4]; 0.125 µg/mL (≈ 0.266 µM) in assay [5]; 1 µg/mL (≈ 2.13 µM) in assay [6].
As to `CN1C(=O)CCc2ccc(F)c(CCNC[C@H]3CN(c4ccc5c(n4)NC(=O)CO5)C(=O)O3)c21` [Example 2, (S)-6-(5-(((2-(7-fluoro-1-methyl-2-oxo-1,2,3,4-tetrahydroquinolin-8-yl)ethyl)amino)methyl)-2-oxooxazolidin-3-yl)-2H-pyrido[3,2-b][1,4]oxazin-3(4H)-one], the MIC worked out at 1 µg/mL (≈ 2.13 µM) in assay [1]; 0.125 µg/mL (≈ 0.266 µM) in assay [2]; 0.25 µg/mL (≈ 0.533 µM) in assay [3]; 4 µg/mL (≈ 8.52 µM) in assay [4]; 0.125 µg/mL (≈ 0.266 µM) in assay [5]; 0.125 µg/mL (≈ 0.266 µM) in assay [6].
For the compound `Cn1c(=O)cnc2ccc(F)c(CCNC[C@H]3CN(c4cnc5c(n4)NC(=O)CO5)C(=O)O3)c21` [Example 30, (S)-6-(5-(((2-(6-fluoro-4-methyl-3-oxo-3,4-dihydroquinoxalin-5-yl)ethyl)amino)methyl)-2-oxooxazolidin-3-yl)-2H-pyrazino[2,3-b][1,4]oxazin-3(4H)-one], the MIC amounted to 0.125 µg/mL (≈ 0.266 µM) in assay [1]; 0.06 µg/mL (≈ 0.128 µM) in assay [2]; 0.06 µg/mL (≈ 0.128 µM) in assay [3]; 0.25 µg/mL (≈ 0.533 µM) in assay [4]; 0.03 µg/mL (≈ 0.0639 µM) in assay [5]; 0.06 µg/mL (≈ 0.128 µM) in assay [6].
As to `Cc1nc2ccc(F)c(CCNC[C@@H]3CN(c4ccc5c(n4)NC(=O)CO5)C(=O)O3)c2n(C)c1=O` [Example 7, (R)-6-(5-(((2-(6-fluoro-2,4-dimethyl-3-oxo-3,4-dihydroquinoxalin-5-yl)ethyl)amino)methyl)-2-oxooxazolidin-3-yl)-2H-pyrido[3,2-b][1,4]oxazin-3(4H)-one], the MIC came out at 0.25 µg/mL (≈ 0.518 µM) in assay [1]; 0.125 µg/mL (≈ 0.259 µM) in assay [2]; 0.25 µg/mL (≈ 0.518 µM) in assay [3]; 2 µg/mL (≈ 4.15 µM) in assay [4]; 0.06 µg/mL (≈ 0.124 µM) in assay [5]; 0.06 µg/mL (≈ 0.124 µM) in assay [6].
